The nature of this data set: gradient 5% acetonitrile 3 min, to 50% in 2 min, to 85% in 15 min, held 3 min, 100 µL/min. The following applies: column: Zorbax Extend-C18 2.1 x 50 mm; eluents: water / acetonitrile, 0.1% formic acid. A digest of the protocol:
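In both positive and negative ionization mode, a quadrupole time-of-flight mass spectrometer coupled to HPLC analyzed pure standards run in mixtures of ~100 molecules. The Zorbax Extend-C18 column (2.1 × 50 mm, 1.8 μm) was operated at 100 μL/min with water and acetonitrile, each containing 0.1% formic acid. The dead volume was 40 μL and the dwell volume 900 μL. Retention time came from adduct peaks that were computationally picked and individually inspected by hand.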
As to `CCn1cnnc1C1CCCN(C(=O)CCc2c[nH]c3ccccc23)C1` (centres undefined), the RP-LC retention time was 612 s.

Compound `O=C(CCCc1ccccc1)N1CCN(c2cc(-c3cccs3)[nH]n2)CC1` came in with an RP-LC retention time of 860 s.

Compound `Cc1nc(Nc2ccc(F)cn2)sc1C(=O)NCCC1=CCCCC1` gave an RP-LC retention time of 963 s.

Regarding `O=C(CCc1c(-c2ccc(Cl)cc2)nc2ccccn12)Nc1ccc(F)cc1`, the RP-LC retention time came to 748 s.

In the case of `O=C(c1cnccn1)N1CC(c2nc(-c3cccs3)no2)C1`, the RP-LC retention time is 693 s.

On to `COc1ccc(OCc2noc(CNC(=O)Nc3ccc(Cl)c(Cl)c3)n2)cc1`, for which the RP-LC retention time came to 917 s.

Turning to `COCC(C)(O)CNS(=O)(=O)Cc1cccc(F)c1` (centres undefined), the RP-LC retention time was found to be 641 s.

Consider `O=C(c1ccccc1Cl)N1CCN(c2cc(-c3ccc(Cl)cc3)[nH]n2)CC1`, for which the RP-LC retention time is 854 s.

Compound `Cc1ccnc(NC(=O)c2ccc(Cn3cncn3)cc2)c1` showed an RP-LC retention time of 593 s.

In the case of `CCn1cc(-c2nc(C(=O)Nc3ccc(C)cc3F)cs2)c2cccnc21`, the RP-LC retention time came to 983 s.

`O=C(C1CCN(c2cn[nH]c(=O)c2)C1)N1CCCC1` (centres undefined): the RP-LC retention time is 571 s.

Regarding `Cc1cccc(Cn2cc(C(=O)O)c(S(=O)(=O)N3CCSCC3)n2)c1`, the RP-LC retention time was determined as 914 s.

On to `CN(C)[C@@H]1CN(C(=O)c2cccc(Br)c2)C[C@H]1CO`, for which the RP-LC retention time is 573 s.

As for `CCC(C)CN(CC(=O)N1CCc2sccc2C1COc1ccc(F)cc1)C(=O)COC` (centres undefined), the RP-LC retention time is 962 s.

In turn, `Cc1ccc(CNC(=O)c2ccccc2CN2C(=O)C3CCCN3C(=O)c3ccccc32)o1` (centres undefined) displayed an RP-LC retention time of 741 s.

Compound `CCc1cccc(NS(=O)(=O)c2cc3n(c2)CCN(CC(C)C)C3=O)c1` had an RP-LC retention time of 852 s.

In turn, `O=C(c1cccc(OC(F)(F)F)c1)N1C[C@@H]2C[C@H]1C[C@@H]2NS(=O)(=O)c1ccccc1` showed an RP-LC retention time of 887 s.

Compound `CC(C)Cn1c(=O)c(N2CCN(S(=O)(=O)c3ccccc3F)CC2)nc2ccncc21` had an RP-LC retention time of 743 s.

For `O=C(NCc1ccccc1)c1cccn1Cc1noc(-c2ccccc2)n1`, the RP-LC retention time is 981 s.

`COc1ccc(Br)cc1S(=O)(=O)NC(=O)/C=C/c1ccccc1Cc1ccc2ccccc2c1` came in with an RP-LC retention time of 1280 s.

In the case of `Cn1nc(-c2nc(C3CC3)no2)c2c1CCN(C(=O)NCc1ccccc1)C2`, the RP-LC retention time was 788 s.

For the compound `COc1cc(NC(=O)NCC(c2cccn2C)N2CCOCC2)cc(OC)c1` (centres undefined), the RP-LC retention time was found to be 563 s.

In turn, `Cc1c(Cl)ccc2c(=O)c3c([nH]c12)CCN(CC(=O)Nc1ccc(Cl)c(F)c1)C3` gave an RP-LC retention time of 646 s.

`COc1ccc(OC)c(NC(=O)Cn2c(C(F)(F)F)nc3cc4c(cc32)OCCO4)c1` showed an RP-LC retention time of 881 s.

The compound `Cc1ccc(-c2ccc(N3CCCC(C(=O)NCc4ccc(C(C)C)cc4)C3)nn2)cc1` (centres undefined) returned an RP-LC retention time of 889 s.

Compound `CCN1CCN(C(=O)CC2COc3ccc(Cl)cc3N2Cc2ccccc2)CC1` (centres undefined) returned an RP-LC retention time of 730 s.

For the compound `CC12CC(NC(=O)N1c1cccc(C(=O)O)c1)c1ccccc1O2` (centres undefined), the RP-LC retention time is 683 s.

The compound `Cc1ccc(-c2noc(-c3nc(C4CC4)no3)n2)cc1` returned an RP-LC retention time of 1160 s.

In turn, `Cc1cccc(Oc2nccnc2N2CCC(C(=O)NC(C)c3ccc(C)cc3C)CC2)c1` (centres undefined) gave an RP-LC retention time of 1150 s.

Compound `O=C(C1CCCN(c2ncnc3c2nc2n3CCCCC2)C1)N1CCN(c2ncccn2)CC1` (centres undefined) showed an RP-LC retention time of 690 s.

In the case of `Cc1ccc2c(C(=O)NCCc3cccnc3)cc(NC(=O)C(C)C)cc2n1`, the RP-LC retention time amounted to 550 s.

`CCOC(=O)c1noc2ncnc(N3CCC(c4ccccc4)C3)c12` (centres undefined) showed an RP-LC retention time of 1030 s.

`O=C(CCc1nnc2c3cc(-c4ccc(F)cc4)nn3ccn12)NCCc1ccccn1`: the RP-LC retention time was 603 s.

Consider `O=C(NCc1ccc(F)cc1)C1CCN(S(=O)(=O)c2ccc3[nH]c(=O)sc3c2)CC1`, for which the RP-LC retention time stood at 742 s.

On to `CN(C)CCCN1c2ccccc2Sc2ccc(C(F)(F)F)cc21`, for which the RP-LC retention time is 885 s.

In the case of `CCC(C(=O)Nc1ccc(OC)c(OC)c1)n1cnc2nc3c(cc2c1=O)CCCC3` (centres undefined), the RP-LC retention time turned out to be 720 s.

Compound `CCCn1c(=O)sc2cc(S(=O)(=O)N3CCN(C(=O)c4ccnn4C)CC3)ccc21` yielded an RP-LC retention time of 792 s.

As for `O=C1CC(c2nc(-c3cccc(Cl)c3)no2)CN1c1ccc2c(c1)OCCO2` (centres undefined), the RP-LC retention time came out at 1000 s.

The compound `CC(C)c1ccc(S(=O)(=O)N(CC(=O)N2CCNCC2)CC2CCCO2)cc1` (centres undefined) came in with an RP-LC retention time of 602 s.

Compound `CC(C)NC(=O)c1ccc(OCC2CCN(C(=O)c3c(F)cccc3Cl)CC2)cc1` gave an RP-LC retention time of 888 s.

On to `CCN(CC)S(=O)(=O)c1ccc2c(c1)CC(C(=O)NCCN1CCCCCC1)N2C(C)=O` (centres undefined), for which the RP-LC retention time came out at 631 s.

In turn, `O=C(Cn1c(=O)c2cccn2c2ccc(F)cc21)NCc1ccco1` showed an RP-LC retention time of 767 s.

`COc1ccc(CC(=O)N2CCC3(CC2)NC(=O)c2ccc(Cl)cc2N3)cc1` showed an RP-LC retention time of 787 s.

The compound `Cc1cc(=O)n(CC(=O)Nc2cccc(F)c2)c(N2CCCC2)n1` showed an RP-LC retention time of 634 s.

`CSc1cccc(NC(=O)C2CCCN(C(=O)c3cc(C)cc(C)c3)C2)c1` (centres undefined): the RP-LC retention time came out at 1010 s.

Compound `O=C(Cn1cccc(-c2nc(-c3ccc(Cl)cc3)no2)c1=O)Nc1ccc2c(c1)OCO2` gave an RP-LC retention time of 916 s.

On to `CCCN1C(=O)c2ccccc2Sc2cc(-c3noc(CNC(=O)c4cccs4)n3)ccc21`, for which the RP-LC retention time is 999 s.

`Cc1ccc(-c2nc(-c3cccc(-c4ccnn4C)c3)no2)cc1C` gave an RP-LC retention time of 1300 s.

In the case of `Cc1cc(C(=O)N2CCCn3ccnc3C2c2cnn(C)c2)c(C)o1` (centres undefined), the RP-LC retention time stood at 587 s.

On to `O=C1CN(C(=O)CCC[C@@H]2[C@H]3CCCN4CCC[C@@H](CN2C(=O)c2cccnc2)[C@@H]34)CCN1`, for which the RP-LC retention time is 629 s.

On to `O=C(Nc1ccc2ncnc(N3CCCCC3)c2c1)c1ccc(Br)o1`, for which the RP-LC retention time amounted to 704 s.

The compound `Cc1nc(-c2ccc(N3CCN(C(=O)COc4ccc(F)cc4)CC3)nc2)sc1C` showed an RP-LC retention time of 880 s.

Turning to `O=C(NCCCN1CCCCC1)c1cc2n(n1)CCCN(Cc1ccccc1)C2=O`, the RP-LC retention time came to 569 s.

`COc1ncc(C(=O)N2CCN(c3ccccc3Cl)CC2)cn1` gave an RP-LC retention time of 811 s.

Take `Cn1nc(C(=O)N2CCCC(C(=O)Nc3ccccc3)C2)c2c1CCN(C(=O)Cc1cccs1)C2` (centres undefined): the RP-LC retention time came to 748 s.

`O=c1c2cc(-c3ccc(F)cc3)nn2ccn1Cc1noc(CN2CCc3ccccc32)n1` returned an RP-LC retention time of 1050 s.

As for `Cc1nc(-c2csc(S(=O)(=O)N3CCC(C(=O)Nc4ccc(F)cc4)CC3)c2)no1`, the RP-LC retention time was 916 s.

For `C=C(C)C(=O)Nc1ccc(NC(C)C)cc1`, the RP-LC retention time worked out at 629 s.

Compound `CCOc1ccc(C2Cn3nnc(-c4nc(-c5ccccc5OCC)no4)c3CO2)cc1` (centres undefined) gave an RP-LC retention time of 1200 s.

Turning to `CS(=O)(=O)N1CCC(OC2CCN(C(=O)Nc3cccc(Cl)c3)CC2)CC1`, the RP-LC retention time is 831 s.

The compound `CC(C)CCN1C[C@@H](CO)[C@H](c2nc(-c3cccnc3)no2)C1` displayed an RP-LC retention time of 583 s.

As to `CCCNC(=O)CCc1nc2ccccc2n(CC(=O)Nc2ccc(C(=O)OCC)cc2)c1=O`, the RP-LC retention time was determined as 792 s.

For `COC(=O)c1ccc2c(=O)n(-c3cccc(C)c3)c(N3CCCCC3)nc2c1`, the RP-LC retention time is 1240 s.

The compound `O=C(NCc1n[nH]c(=O)c2ccccc12)C(=O)N1CCN(c2ccccc2)CC1` came in with an RP-LC retention time of 658 s.

The compound `COC(=O)Nc1nc(CC(=O)Nc2ccc(F)c(Cl)c2)cs1` displayed an RP-LC retention time of 744 s.

Compound `O=C(OCc1ccncc1)c1cn(-c2ccc(F)cc2)c(=O)c2ccccc12` returned an RP-LC retention time of 703 s.

As to `Cc1ccc(Nc2nc(C(=O)N3CCN(S(C)(=O)=O)CC3)cs2)c(C)c1`, the RP-LC retention time was 752 s.

As to `CCS(=O)(=O)N1CCC(C(=O)NCCc2csc(-c3cccs3)n2)CC1`, the RP-LC retention time is 738 s.

In turn, `Cc1ccccc1S(=O)(=O)N1CCC(n2cnnc2-c2ccccc2)CC1` displayed an RP-LC retention time of 773 s.

Compound `O=C(NC1CCCC1)N1CCC(OC2CCN(Cc3ccccc3)CC2)CC1` came in with an RP-LC retention time of 634 s.

In the case of `CC1CCc2c(sc3nc(CCC(=O)N4CCC(C(N)=O)CC4)[nH]c(=O)c23)C1` (centres undefined), the RP-LC retention time came to 697 s.

On to `COCC1(O)CCOC2(CCN(C(=O)C3CCCCC3)CC2)C1` (centres undefined), for which the RP-LC retention time was determined as 656 s.

As for `Cc1cccc(S(=O)(=O)Nc2cccc(-c3cn4ccccc4n3)c2)c1`, the RP-LC retention time turned out to be 644 s.

`CC(=O)Nc1ccc(-n2cnc(C(=O)N3CCN(c4cc(C)ccc4C)CC3)c2)nc1` had an RP-LC retention time of 790 s.

In the case of `Cn1c(C(=O)N2CCCC(C(=O)N3CCc4ccccc4C3)C2)cc2sccc21` (centres undefined), the RP-LC retention time stood at 925 s.

As for `CCOC(=O)c1ccc(OC(=O)c2cn(C)c(=O)c3ccccc23)cc1`, the RP-LC retention time was determined as 953 s.

As to `COc1ccc(Cn2cccc2-c2nc(-c3ccncc3)no2)cc1`, the RP-LC retention time is 1080 s.

Compound `COc1ccc(CNC(=O)c2sc(-c3cn(C)c4ncccc34)nc2C)cc1` registered an RP-LC retention time of 958 s.

In the case of `O=C(CSCc1ccccc1)NCC1(CO)CC1`, the RP-LC retention time amounted to 660 s.

These data come from the METLIN SMRT retention time set (Domingo-Almenara et al. 2019).
